Test results as given in article PMC6009861, “Development of terphenyl-2-methyloxazol-5(4H)-one derivatives as selective reversible MAGL inhibitors” (Journal of Enzyme Inhibition and Medicinal Chemistry, 2017).

Tests used:
[1] = biological target: T1, MAGL (Homo sapiens, UniProt Q99685); test: MAGL-inhibition assay (4-NPA substrate, absorbance 405 nm); assay type: biochemical; conditions: for MAGL/FAAH selectivity: ratio of FAAH IC50 to MAGL IC50 (fold)
T1 construct: purchased Cayman Chemical
T1 sequence (Q99685 1-303): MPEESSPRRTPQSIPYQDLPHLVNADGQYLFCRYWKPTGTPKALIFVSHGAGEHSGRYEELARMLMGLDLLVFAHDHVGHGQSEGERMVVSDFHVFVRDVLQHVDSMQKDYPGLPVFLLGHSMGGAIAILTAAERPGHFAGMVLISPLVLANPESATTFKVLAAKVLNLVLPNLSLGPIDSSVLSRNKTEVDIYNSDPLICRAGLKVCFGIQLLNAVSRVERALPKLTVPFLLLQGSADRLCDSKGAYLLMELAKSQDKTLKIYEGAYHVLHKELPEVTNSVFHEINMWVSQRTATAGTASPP
Description: Human recombinant MAGL, and 4-nitrophenylacetate substrate (4-NPA) were from Cayman Chemical. The IC50 values for compounds were generated in 96-well microtiter plates. The MAGL reaction was conducted at RT at a final volume of 200 µL in 10 mM Tris buffer, pH 7.2, containing 1 mM EDTA. A total of 150 µL of 4-NPA 133.3 µM (final concentration = 100 µM) was added to 10 µL of DMSO containing the appropriate amount of compound. The reaction was initiated by the addition of 40 µL of MAGL (11 ng/well) in such a way that the assay was linear over 30 min. […] After the reaction had proceeded for 30 min, absorbance values were then measured by using a VictorX3 PerkinElmer instrument at 405 nm. Two reactions were also run: one reaction containing no compounds and the second one containing neither inhibitor nor enzyme. IC50 values were derived from experimental data using the Sigmoidal dose–response fitting of GraphPad Prism software as reported earlier.

[2] = biological target: T2, human FAAH (Homo sapiens, UniProt O00519); test: FAAH inhibition assay (AMC arachidonoyl amide, fluorescence); assay type: biochemical; conditions: AMC arachidonoyl amide 10 µM, 30 min, RT
T2 sequence (O00519 1-579): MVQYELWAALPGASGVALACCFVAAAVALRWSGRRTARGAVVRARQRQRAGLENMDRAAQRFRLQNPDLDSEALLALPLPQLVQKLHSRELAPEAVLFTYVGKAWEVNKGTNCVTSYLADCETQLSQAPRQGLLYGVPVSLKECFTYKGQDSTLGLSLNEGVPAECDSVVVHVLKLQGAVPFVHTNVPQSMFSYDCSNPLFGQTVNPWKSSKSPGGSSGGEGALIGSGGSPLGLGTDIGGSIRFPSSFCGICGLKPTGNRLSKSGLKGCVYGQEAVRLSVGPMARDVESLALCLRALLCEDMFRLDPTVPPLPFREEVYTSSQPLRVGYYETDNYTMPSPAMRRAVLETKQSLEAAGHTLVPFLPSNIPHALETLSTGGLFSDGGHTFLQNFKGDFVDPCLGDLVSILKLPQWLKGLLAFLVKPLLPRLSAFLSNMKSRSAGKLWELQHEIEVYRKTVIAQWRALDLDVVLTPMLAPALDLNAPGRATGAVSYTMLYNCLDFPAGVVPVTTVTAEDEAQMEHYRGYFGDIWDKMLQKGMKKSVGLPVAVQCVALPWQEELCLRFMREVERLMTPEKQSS
Description: The IC50 values for compounds were generated in 96-well microtiter plates. The FAAH reaction was conducted at RT at a final volume of 200 µL in 125 mM Tris buffer, pH 9.0, containing 1 mM EDTA. A total of 150 µL of AMC arachidonoyl amide 13.3 µM (final concentration = 10 µM) was added to 10 µL of DMSO containing the appropriate amount of compound. The reaction was initiated by the addition of 40 µL of FAAH (0.9 µg/well) in such a way that the assay was linear over 30 min. After the reaction had proceeded for 30 min, fluorescence values were then measured by using a VictorX3 PerkinElmer instrument at an excitation wavelength of 340 nm and an emission of 460 nm. Two reactions were also run: one reaction containing no compounds and the second one containing neither inhibitor nor enzyme. IC50 values were derived from experimental data using the Sigmoidal dose − response fitting of GraphPad Prism software as reported earlier. To remove possible false-positive results, for each compound concentration, a blank analysis was carried out, and the final fluorescence results were obtained detracting the fluorescence produced by the presence of all the components except FAAH in the same conditions.

[3] = tested on: EAE mouse model of multiple sclerosis; design: method as in PMID 25298214; conditions: cited from earlier work
[4] = biological target: T1, MAGL; test: MAGL preincubation assay; assay type: biochemical; conditions: preincubation 0, 30 and 60 min with hMAGL
Description: The MAGL reaction was conducted at RT at a final volume of 200 µL in 10 mM Tris buffer, pH 7.2, containing 1 mM EDTA. A total of 150 µL of MAGL (11 ng/well) was added to 10 µL of DMSO containing the appropriate amount of compound. After 0, 30, and 60 min of incubation time the reaction was initiated by the addition of 40 µL of 4-NPA 500 µM. The enzyme activity was then measured according to the procedure described above.

[5] = biological target: T1, MAGL; test: MAGL dilution assay; assay type: biochemical; conditions: 10 µM incubated 60 min, then 40x dilution (final 0.25 µM)
Description: The enzyme (880 ng in 75 µL of Tris buffer, pH 7.2) was incubated during 60 min at RT with 5 µL of compound 20b (concentration of 10 µM in the mixture) dissolved in DMSO. The MAGL-inhibitor mixture was then diluted 40-fold with the buffer. After 15 min of incubation, the reaction was initiated on a 160 µL aliquot by the addition of 40 µL of 4-NPA 500 µM and the enzyme activity was measured according to the procedure described above.

[6] = tested on: OVCAR3; test: Cell viability assay, OVCAR3; assay type: cell-based; conditions: OVCAR-3; OVCAR3 human ovarian cancer cells, 96 h
Description: (§1) COV318, OVCAR-3 (from ATCC) and hMSC (from AB Cell-Bio) were maintained at 37 °C in a humidified atmosphere containing 5% CO2 accordingly to the supplier. Normal (1.5 × 10^4) and tumor (5 × 10^2) cells were plated in 96-well culture plates. The day after seeding, vehicle or compounds were added at different concentrations to the medium. Compound was added to the cell culture at a concentration ranging from 200 to 0.02 µM. Cell viability was measured after 96 h according to the supplier (Promega, G7571) with a Tecan F200 instrument. IC50 values were calculated from logistical dose–response curves. Averages were obtained from three independent experiments, and error bars are standard deviations (n = 3).

[7] = tested on: CAOV3; test: Cell viability assay, CAOV3; assay type: cell-based; conditions: Caov-3; CAOV3 human ovarian cancer cells, 96 h
[8] = tested on: noncancerous human mesenchymal stem cells (hMSC); test: Cell viability assay, hMSC; assay type: cell-based; conditions: 96 h
Description: as §1

[9] = human recombinant MAGL, 4-NPA 100 µM, 30 min, RT

Row | Compound | IC50 [1, 9] [µM] | MAGL/FAAH selectivity [1] | IC50 [2] [µM] | also measured
1 | CC1=N/C(=C\c2cccc(-c3ccccc3)c2-c2ccccc2)C(=O)O1 [Compound 9, (Z)-4-[(1,1′:2′,1′′-Terphenyl)-3′-ylmethylene]-2-methyloxazol-5(4H)-one] | 2.56 ± 0.172 | 8 | 20.1 ± 1.44 | 
2 | CC1=N/C(=C\c2ccc(-c3ccccc3)cc2-c2ccccc2)C(=O)O1 [Compound 7, (Z)-4-[(1,1′:3′,1′′-Terphenyl)-4′-ylmethylene]-2-methyloxazol-5(4H)-one] | 0.546 ± 0.02 | 33 | 18.2 ± 0.904 | 
3 | O=C(CCCCCc1ccc(-c2ccccc2)cc1)OCc1ccc2c(c1)OCO2 [c21] |  |  |  | Catalepsy or other motor impairments ([3]; mouse): not accompanied by catalepsy or other motor impairments; Effect on clinical progression in EAE mouse model ([3]; multiple sclerosis mouse model): ameliorated the clinical progression
4 | O=C(Oc1ccc([N+](=O)[O-])cc1)N1CCC(C(O)(c2ccc3c(c2)OCO3)c2ccc3c(c2)OCO3)CC1 [JZL-184, reference compound] |  |  | 3.3 ± 0.205 | 
5 | CC1=N/C(=C\c2cc(-c3ccccc3)cc(-c3ccccc3)c2)C(=O)O1 [Compound 13, (Z)-4-[(1,1′:3′,1′′-Terphenyl)-5′-ylmethylene]-2-methyloxazol-5(4H)-one] | 0.457 ± 0.01 | 32 | 14.8 ± 1.18 | 
6 | CC1=N/C(=C\c2cc(-c3ccccc3)ccc2-c2ccccc2)C(=O)O1 [Compound 15, (Z)-4-[(1,1′:4′,1′′-Terphenyl)-2′-ylmethylene]-2-methyloxazol-5(4H)-one] | 0.32 ± 0.01 | 34 | 10.9 ± 0.161 | 
7 | CC1=N/C(=C\c2ccc(-c3ccccc3)c(-c3ccccc3)c2)C(=O)O1 [Compound 5, (Z)-4-[(1,1′:2′,1′′-Terphenyl)-4′-ylmethylene]-2-methyloxazol-5(4H)-one] | 0.837 ± 0.018 | 3 | 2.32 ± 0.051 | 

The next lines start with results.

Row | IC50 [1, 9] [µM] | MAGL/FAAH selectivity [1] | IC50 [2] [µM] | Compound | also measured
8 | 0.335 ± 0.002 | 67 | 22.3 ± 1.24 | COc1ccc(-c2ccc(-c3ccc(OC)c(F)c3)c(/C=C3\N=C(C)OC3=O)c2)cc1F [Compound 20g, (Z)-4-{[3,3′′-Difluoro-4,4′′-dimethoxy-(1,1′:4′,1′′-terphenyl)-2′-yl]methylene}-2-methyloxazol-5(4H)-one] | 
9 | 4.19 ± 0.299 | 4 | 17.7 ± 1.2 | CC1=N/C(=C\c2cc(-c3ccc(OC(F)(F)F)cc3)ccc2-c2ccc(OC(F)(F)F)cc2)C(=O)O1 [Compound 20c, (Z)-4-{[4,4′′-Bis(trifluoromethoxy)-(1,1′:4′,1′′-terphenyl)-2′-yl]methylene}-2-methyloxazol-5(4H)-one] | IC50 ([1]; approximate values): 4 to 6 µM
10 | 0.683 ± 0.05 | 41 | 28 ± 1.31 | CC1=N/C(=C\c2cc(-c3ccc(F)cc3)ccc2-c2ccc(F)cc2)C(=O)O1 [Compound 20a, (Z)-4-{[4,4′′-Difluoro-(1,1′:4′,1′′-terphenyl)-2′-yl]methylene}-2-methyloxazol-5(4H)-one] | 
11 | 0.673 ± 0.023 | 35 | 23.7 ± 1.35 | CC1=N/C(=C\c2cc(-c3ccc4c(c3)OCO4)ccc2-c2ccc3c(c2)OCO3)C(=O)O1 [Compound 20f, (Z)-4–[2,5-Bis(benzo[d][1,3]dioxol-5-yl)benzylidene]-2-methyloxazol-5(4H)-one] | 
12 | 0.348 ± 0.038 | 104 | 36.1 ± 1.12 | COc1ccc(-c2ccc(-c3ccc(OC)cc3)c(/C=C3\N=C(C)OC3=O)c2)cc1 [Compound 20b, (Z)-4-{[4,4′′-Dimethoxy-(1,1′:4′,1′′-terphenyl)-2′-yl]methylene}-2-methyloxazol-5(4H)-one] | Change of MAGL blocking ability (IC50) with preincubation time [4]: did not show any significant increase; Inhibition mechanism in dilution assay [5]: reversible inhibition; IC50 [6]: 41.6 µM; IC50 [7]: 23.8 µM; IC50 [8]: > 100 µM
13 | 0.476 ± 0.039 | 24 | 11.5 ± 0.998 | CC1=N/C(=C\c2cc(-c3ccc(Cl)cc3)ccc2-c2ccc(Cl)cc2)C(=O)O1 [Compound 20h, (Z)-4-{[4,4′′-Dichloro-(1,1′:4′,1′′-terphenyl)-2′-yl]methylene}-2-methyloxazol-5(4H)-one] | 
14 | 0.628 ± 0.032 | 19 | 11.7 ± 0.895 | CC1=N/C(=C\c2cc(-c3cccc(F)c3)ccc2-c2cccc(F)c2)C(=O)O1 [Compound 20e, (Z)-4-{[3,3′′-Difluoro-(1,1′:4′,1′′-terphenyl)-2′-yl]methylene}-2-methyloxazol-5(4H)-one] | 
15 | 0.144 ± 0.004 | 0.1 | 0.0147 ± 0.0002 | COc1nn(-c2ccc(NC(=O)OCc3ccccc3)c(C)c2)c(=O)o1 [CAY10499, reference compound] | 
16 | 6.76 ± 1.13 | 4 | 29 ± 1.16 | CC1=N/C(=C\c2cc(-c3ccc(C(F)(F)F)cc3)ccc2-c2ccc(C(F)(F)F)cc2)C(=O)O1 [Compound 20d, (Z)-4-{[4,4′′-Bis(trifluoromethyl)-(1,1′:4′,1′′-terphenyl)-2′-yl]methylene}-2-methyloxazol-5(4H)-one] | IC50 ([1]; approximate values): 4 to 6 µM
